ChEMBL document CHEMBL1201862, “PubChem BioAssay data set” (2004)
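Each compound was tested at five concentrations against cells in 96-well plates for 48 hours. GI50 = concentration required for 50% inhibition of growth.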 Activity calls are given as the source filed them. Rule as the data show it: active = GI50 up to about 1.1 µM and inactive = higher.

Experiments:
Assay in all cases: inhibition of tumour cell growth, NCI panel, 48 h
[1] = system: HL-60
[2] = system: SR
[3] = system: NCI-H460
[4] = system: Hs-578T
[5] = system: SN12C
[6] = system: CAKI-1
[7] = system: MOLT-4
[8] = system: HOP-92
[9] = system: IGROV-1
[10] = system: UACC-257
[11] = system: A549
[12] = system: MDA-MB-231
[13] = system: SNB-75
[14] = system: MDA-N
[15] = system: HT-29
[16] = system: ACHN
[17] = system: U-251
[18] = system: CCRF-CEM
[19] = system: SK-MEL-2
[20] = system: OVCAR-3

Measured: GI50

C/C(=N\NC(=O)/C(C#N)=C\c1ccc(N(CCC#N)CCC#N)cc1)c1ccccc1
inactive: [1] > 10 µM | [2] > 10 µM | [3] > 10 µM | [4] > 10 µM | [5] > 10 µM | [6] > 10 µM | [7] > 10 µM | [8] > 10 µM | [9] > 10 µM | [10] > 10 µM | [11] > 10 µM | [12] > 10 µM | [13] > 10 µM | [14] > 10 µM | [15] > 10 µM | [16] > 10 µM

CO/C(=N\N=C\c1ccc(OC)c(OC)c1)c1ccncc1
inactive: [1] > 10 µM | [2] > 10 µM | [3] > 10 µM | [17] > 10 µM | [4] > 10 µM | [5] > 10 µM | [6] > 10 µM | [7] > 10 µM | [8] > 10 µM | [9] > 10 µM | [10] > 10 µM | [11] > 10 µM | [12] > 10 µM | [13] > 10 µM | [14] > 10 µM | [18] > 10 µM

c1ccc(B2OCC(C3OB(c4ccccc4)OC4COB(c5ccccc5)OC43)O2)cc1 (configuration not stated)
inactive: [2] > 100 µM | [3] > 100 µM | [17] > 100 µM | [19] > 100 µM | [4] > 100 µM | [5] > 100 µM | [6] > 100 µM | [7] > 100 µM | [8] > 100 µM | [9] > 100 µM | [10] > 100 µM | [11] > 100 µM | [12] > 100 µM | [13] > 100 µM | [14] > 100 µM | [20] > 100 µM | [18] > 100 µM | [15] > 100 µM | [16] > 100 µM

O=C(CCc1cc(O)cc(O)c1)NCCc1cc(O)cc(OCc2ccccc2)c1
inactive: [2] 30.5 µM | [3] 20.4 µM | [17] 41.8 µM | [19] 44.8 µM | [4] 32.1 µM | [5] 39.3 µM | [6] > 100 µM | [7] 28.9 µM | [8] 53.1 µM | [9] 59.3 µM | [10] 82.4 µM | [11] 42.3 µM | [12] 29.8 µM | [13] 27.2 µM | [14] 27.5 µM | [20] 35.7 µM | [18] > 10 µM | [15] 29 µM | [16] 24.7 µM

CCOC(=O)c1ccc(C(=O)/C(C#N)=C2\CCCN2)n1C
inactive: [1] 34.2 µM | [2] 31 µM | [3] > 100 µM | [17] > 100 µM | [19] > 100 µM | [4] > 100 µM | [5] > 100 µM | [6] > 100 µM | [7] 13.6 µM | [9] > 100 µM | [11] > 100 µM | [12] > 100 µM | [13] 24.7 µM | [14] 34 µM | [20] 68.4 µM | [18] > 100 µM | [15] 79.4 µM | [16] > 100 µM

O=C(/C=C/c1ccc(O)c(O)c1)OCCCOC(=O)/C=C/c1ccc(O)c(O)c1
inactive: [2] 17.2 µM | [3] 21.8 µM | [17] 23.5 µM | [19] 41.8 µM | [4] 49.5 µM | [5] 28.1 µM | [6] 34.4 µM | [7] 10.9 µM | [8] 20 µM | [9] 13.3 µM | [10] 26.4 µM | [11] 31.3 µM | [12] 62.1 µM | [13] 47.2 µM | [14] 17.5 µM | [20] 10.8 µM | [18] 2.63 µM | [15] 22.3 µM | [16] 16.2 µM

CCOC(=O)NC(OC)(C(F)(F)F)C(F)(F)F
inactive: [1] > 100 µM | [2] > 100 µM | [3] > 100 µM | [17] > 100 µM | [4] > 100 µM | [6] > 100 µM | [7] > 100 µM | [8] > 100 µM | [9] > 100 µM | [10] > 100 µM | [11] > 100 µM | [12] > 100 µM | [13] > 100 µM | [14] > 100 µM | [20] > 100 µM | [18] > 100 µM | [15] > 100 µM | [16] > 100 µM

COc1cc(OC)c2nc(C)c3c(c2c1)NCC3
inactive: [1] 15.7 µM | [2] 2.89 µM | [3] 3.33 µM | [17] 9.35 µM | [19] 9.42 µM | [4] 2.56 µM | [5] 4.48 µM | [8] 13.3 µM | [9] 9.75 µM | [10] 3.91 µM | [11] 11.8 µM | [12] 7.76 µM | [13] 12.4 µM | [14] 8.09 µM | [20] 10.2 µM | [18] 5.26 µM | [15] 4.05 µM | [16] 4.88 µM

Cn1c(-c2ccc(-c3cc(-c4cccs4)c(-c4cccs4)n3C)cc2)cc(-c2cccs2)c1-c1cccs1
inactive: [1] > 100 µM | [2] > 100 µM | [3] > 100 µM | [17] > 100 µM | [19] > 100 µM | [4] > 100 µM | [5] > 100 µM | [6] > 100 µM | [7] > 100 µM | [9] > 100 µM | [10] > 100 µM | [11] > 100 µM | [12] > 100 µM | [13] > 100 µM | [14] > 100 µM | [18] > 100 µM | [15] > 100 µM | [16] > 100 µM

COC1(C)/C=N/CC(C)(C)NC(=O)C(C)(OC)/C=N/CC(C)(C)NC1=O (configuration not stated)
inactive: [1] > 10 µM | [2] > 10 µM | [17] > 10 µM | [4] > 10 µM | [5] > 10 µM | [6] > 10 µM | [7] > 10 µM | [8] > 10 µM | [9] > 10 µM | [10] > 10 µM | [11] > 10 µM | [12] > 10 µM | [13] > 10 µM | [14] > 10 µM | [18] > 10 µM | [15] > 10 µM | [16] > 10 µM

Clc1sc(Cl)c2c1[C@@H](Cl)C[C@@H]2Cl
inactive: [2] 33.6 µM | [3] 92.9 µM | [17] > 100 µM | [19] > 100 µM | [4] 38.1 µM | [5] > 100 µM | [6] 94.6 µM | [7] 46.6 µM | [8] 37.4 µM | [9] 48.1 µM | [10] > 100 µM | [11] 61.9 µM | [12] > 100 µM | [13] 33.3 µM | [14] > 100 µM | [20] > 100 µM | [18] 23.7 µM | [15] > 100 µM | [16] > 100 µM

O=C(O)c1ccc(NNc2cc(=O)[nH]c(=O)[nH]2)cc1
inactive: [1] > 100 µM | [2] > 100 µM | [3] > 100 µM | [17] > 100 µM | [19] > 100 µM | [4] > 100 µM | [5] > 100 µM | [6] > 10 µM | [7] > 100 µM | [9] > 100 µM | [10] > 100 µM | [11] > 100 µM | [12] > 100 µM | [13] 96.8 µM | [14] > 100 µM | [20] > 100 µM | [18] > 100 µM | [15] > 100 µM | [16] > 100 µM

CCOC1OCCCC1Br (configuration not stated)
inactive: [2] > 100 µM | [3] > 100 µM | [19] > 100 µM | [4] > 100 µM | [5] > 100 µM | [6] > 100 µM | [7] > 100 µM | [8] > 100 µM | [9] > 100 µM | [10] > 100 µM | [11] > 100 µM | [12] > 100 µM | [13] > 100 µM | [14] > 100 µM | [20] > 100 µM | [18] > 100 µM | [15] > 100 µM | [16] > 100 µM

CCOC(=O)c1[nH]cc(C)c1-c1ccc2c(-c3ccccc3)nc3ccccc3n12
inactive: [2] 1.62 µM | [3] 2.92 µM | [17] 3.01 µM | [19] 4.29 µM | [4] 2 µM | [5] 3.37 µM | [6] 5.89 µM | [7] 2.31 µM | [8] 3.52 µM | [9] 3.66 µM | [10] 5.3 µM | [11] 3.77 µM | [12] 3.13 µM | [13] 1.85 µM | [14] 2.66 µM | [20] 4.13 µM | [18] 2.68 µM | [15] 2.54 µM | [16] 4.01 µM

CC(=O)OCC1OC(OCCCOP(=S)(OCCC#N)OCC2OC(n3ccc(N)nc3=O)C(OC(=O)c3ccccc3)C2OC(=O)c2ccccc2)C(OC(C)=O)C(OC(C)=O)C1OC(C)=O (configuration not stated)
inactive: [2] > 100 µM | [3] > 100 µM | [17] > 100 µM | [19] > 100 µM | [4] > 100 µM | [5] > 100 µM | [6] > 100 µM | [7] > 100 µM | [8] > 100 µM | [9] > 100 µM | [10] > 100 µM | [11] > 100 µM | [12] > 100 µM | [13] 75.5 µM | [14] > 100 µM | [20] > 100 µM | [18] > 100 µM | [15] > 100 µM | [16] > 100 µM
